The source of these data is ChEMBL document CHEMBL1158828, “(+)-Myristinins A and D from Knema elegans, which inhibit DNA polymerase beta and cleave DNA” (J Nat Prod, 2005).

The test system of experiment [1] is Escherichia coli. Put plainly: Induction of strand scission activity in Escherichia coli supercoiled pSP64 DNA assessed as relaxation of DNA after 1 hr by agarose gel electrophoresis in presence of Cu2+.
Experiment [2] concerns the target DNA polymerase beta (Rattus norvegicus) (UniProt P06766). The experiment is described as follows: Activity of rat recombinant DNA polymerase beta using variable levels of dNTP concentration.
For experiment [3], the target named is T1, DNA polymerase beta (Rattus norvegicus, UniProt P06766). The experiment is described as follows: Inhibition of rat recombinant DNA polymerase beta in absence of bovine serum albumin.
Experiment [4] is described as follows: Potentiation of bleomycin-induced cytotoxicity against mouse P388D1 cells assessed as reduction in cell viability at 9 uM after 6 hrs by trypan blue exclusion test. The experiment is classed as functional.
Experiment [5] has as its system Escherichia coli. Put plainly: Induction of strand scission activity in Escherichia coli supercoiled pSP64 DNA assessed as relaxation of DNA at 10 µM by agarose gel electrophoresis in presence of Cu2+.
Experiment [6] concerns the target T1, DNA polymerase beta. The experiment is described as follows: Inhibition of rat recombinant DNA polymerase beta in presence of bovine serum albumin.
Experiment [7] deals with T1, DNA polymerase beta. The experiment is described as follows: Activity of rat recombinant DNA polymerase beta using variable levels of DNA template-primer.

Broadly, the IC50 is the midpoint of a concentration-inhibition curve. A word on the Ki: it is a measure of affinity in units of concentration, obtained from inhibition or displacement.

Active and inactive are the calls of the source. The rule behind the calls is not given here.

As for `CCCCCCCCCCCC(=O)c1c(O)cc(O)c([C@@H]2C[C@@H](c3ccc(O)cc3)Oc3cc(O)ccc32)c1O`, the Activity result is “Dose-dependent effect” in experiment [1] and 30% in experiment [4]. Besides, the Kii in experiment [2] came out at 4.3 µM. Also, in experiment [2], the Kis is 8.2 µM. Also, the IC50 in experiment [3] turned out to be 2.7 µM; in experiment [6], 12 µM. In addition, the result in experiment [5] was Active. Further, the Ki in experiment [7] worked out at 11 µM.
Consider `O=C(CCCCCCCCc1ccccc1)c1c(O)cc(O)c([C@@H]2C[C@@H](c3ccc(O)cc3)Oc3cc(O)ccc32)c1O`, for which the values for the Activity entry in experiment [1] and in experiment [4] were “Dose-dependent effect” and 30%, respectively. Further, the Kii in experiment [2] was 0.8 µM. The Kis in experiment [2] turned out to be 23 µM. The IC50 in experiment [3] worked out at 1.2 µM; in experiment [6], 4.3 µM. Also, the outcome in experiment [5] was Active. Moreover, in experiment [7], the Ki turned out to be 12 µM.
